Assay results from patent US12492188B2, “1H-benzo[D]imidazole derivatives as TLR9 inhibitors for the treatment of fibrosis” (BRISTOL-MYERS SQUIBB COMPANY, priority 2020, dated 2025).
Where two headings read alike, the source gives them in different places.

How the values were obtained:
Format in all cases: cell-based
human TLR9 = molecular target: T1, human TLR9 (Homo sapiens, UniProt Q9NR96); test: TLR9 inhibition reporter assay (HEK-Blue cells, secreted embryonic alkaline phosphatase reporter)
T1 construct: host or cells: HEK-Blue cells (HEK293-derived reporter line)
T1 sequence (Q9NR96 26-1032): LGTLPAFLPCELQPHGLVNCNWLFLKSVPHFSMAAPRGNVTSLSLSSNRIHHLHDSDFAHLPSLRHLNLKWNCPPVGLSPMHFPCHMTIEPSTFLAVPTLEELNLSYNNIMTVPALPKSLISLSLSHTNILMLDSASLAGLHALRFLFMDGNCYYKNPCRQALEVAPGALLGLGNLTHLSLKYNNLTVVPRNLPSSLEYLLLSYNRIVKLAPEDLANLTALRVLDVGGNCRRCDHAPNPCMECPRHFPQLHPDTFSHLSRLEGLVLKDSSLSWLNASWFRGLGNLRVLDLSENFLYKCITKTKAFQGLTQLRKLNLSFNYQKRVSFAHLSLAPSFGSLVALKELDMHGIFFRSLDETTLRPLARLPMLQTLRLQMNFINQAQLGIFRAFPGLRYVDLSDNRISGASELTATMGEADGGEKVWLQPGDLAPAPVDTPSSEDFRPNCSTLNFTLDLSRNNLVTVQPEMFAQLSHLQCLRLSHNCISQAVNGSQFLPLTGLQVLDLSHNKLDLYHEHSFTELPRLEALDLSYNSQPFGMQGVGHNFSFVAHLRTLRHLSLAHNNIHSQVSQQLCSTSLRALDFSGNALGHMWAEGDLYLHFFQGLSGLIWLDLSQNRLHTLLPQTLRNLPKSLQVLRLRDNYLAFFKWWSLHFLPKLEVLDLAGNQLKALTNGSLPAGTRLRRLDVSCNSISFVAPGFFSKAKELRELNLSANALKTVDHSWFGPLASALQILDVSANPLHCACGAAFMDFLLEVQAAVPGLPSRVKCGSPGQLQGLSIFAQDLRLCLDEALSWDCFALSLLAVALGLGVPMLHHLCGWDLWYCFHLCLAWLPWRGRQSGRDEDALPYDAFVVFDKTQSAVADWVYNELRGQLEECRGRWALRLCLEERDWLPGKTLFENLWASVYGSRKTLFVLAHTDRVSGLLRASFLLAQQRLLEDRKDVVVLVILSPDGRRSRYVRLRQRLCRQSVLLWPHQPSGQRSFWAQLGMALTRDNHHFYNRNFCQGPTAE
Procedure, shortened: (§1)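 Inhibitors are tested in dose response (0.05 nM–50 μM) on HEK-Blue reporter cells expressing human TLR7, TLR8 or TLR9. After 30 min at room temperature, each line is stimulated with its own agonist (gardiquimod 7.5 μM, R848 15.9 μM or ODN2006 5 nM, final) and SEAP is measured 22 h later.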

human TLR7 = molecular target: T2, human TLR7 (Homo sapiens, UniProt Q9NYK1); test: TLR7 inhibition reporter assay (HEK-Blue cells, secreted embryonic alkaline phosphatase reporter); conditions: HEK-Blue cells overexpressing human TLR7, stimulated with gardiquimod 7.5 μM; read-out: TLR 7 IC50
T2 construct: host or cells: HEK-Blue cells (HEK293-derived reporter line)
T2 sequence (Q9NYK1 27-1049): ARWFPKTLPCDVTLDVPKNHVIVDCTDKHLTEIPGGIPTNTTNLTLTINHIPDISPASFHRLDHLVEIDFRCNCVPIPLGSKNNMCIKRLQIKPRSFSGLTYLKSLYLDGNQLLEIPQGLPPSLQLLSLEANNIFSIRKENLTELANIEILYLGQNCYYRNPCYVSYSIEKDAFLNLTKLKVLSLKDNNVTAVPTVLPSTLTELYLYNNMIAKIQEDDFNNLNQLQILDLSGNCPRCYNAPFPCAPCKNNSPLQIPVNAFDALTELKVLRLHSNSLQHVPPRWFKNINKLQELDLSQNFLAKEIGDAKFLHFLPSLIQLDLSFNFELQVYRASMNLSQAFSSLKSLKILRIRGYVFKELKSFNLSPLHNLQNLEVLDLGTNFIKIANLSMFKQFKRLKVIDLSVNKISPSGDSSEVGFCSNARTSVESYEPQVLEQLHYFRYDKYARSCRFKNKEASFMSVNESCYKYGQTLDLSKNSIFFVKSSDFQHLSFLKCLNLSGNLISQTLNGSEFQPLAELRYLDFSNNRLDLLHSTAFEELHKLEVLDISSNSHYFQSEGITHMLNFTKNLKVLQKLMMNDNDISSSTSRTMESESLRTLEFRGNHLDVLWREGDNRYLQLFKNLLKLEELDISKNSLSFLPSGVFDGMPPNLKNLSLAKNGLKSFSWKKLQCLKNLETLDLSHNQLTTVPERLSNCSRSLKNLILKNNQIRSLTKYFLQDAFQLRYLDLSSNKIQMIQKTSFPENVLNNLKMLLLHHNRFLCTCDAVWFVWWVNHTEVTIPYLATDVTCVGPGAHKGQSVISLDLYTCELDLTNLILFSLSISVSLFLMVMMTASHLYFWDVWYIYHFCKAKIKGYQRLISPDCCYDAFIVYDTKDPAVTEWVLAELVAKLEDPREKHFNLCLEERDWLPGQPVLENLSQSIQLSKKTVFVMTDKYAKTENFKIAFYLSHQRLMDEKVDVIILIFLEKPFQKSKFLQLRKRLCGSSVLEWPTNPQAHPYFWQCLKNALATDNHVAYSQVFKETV
Procedure, shortened: as §1

human TLR8 = molecular target: T3, human TLR8 (Homo sapiens, UniProt Q9NR97); test: TLR8 inhibition reporter assay (HEK-Blue cells, secreted embryonic alkaline phosphatase reporter); conditions: HEK-Blue cells overexpressing human TLR8, stimulated with R848 15.9 μM; read-out: TLR 8 IC50
T3 construct: host or cells: HEK-Blue cells (HEK293-derived reporter line)
T3 sequence (Q9NR97 27-1041): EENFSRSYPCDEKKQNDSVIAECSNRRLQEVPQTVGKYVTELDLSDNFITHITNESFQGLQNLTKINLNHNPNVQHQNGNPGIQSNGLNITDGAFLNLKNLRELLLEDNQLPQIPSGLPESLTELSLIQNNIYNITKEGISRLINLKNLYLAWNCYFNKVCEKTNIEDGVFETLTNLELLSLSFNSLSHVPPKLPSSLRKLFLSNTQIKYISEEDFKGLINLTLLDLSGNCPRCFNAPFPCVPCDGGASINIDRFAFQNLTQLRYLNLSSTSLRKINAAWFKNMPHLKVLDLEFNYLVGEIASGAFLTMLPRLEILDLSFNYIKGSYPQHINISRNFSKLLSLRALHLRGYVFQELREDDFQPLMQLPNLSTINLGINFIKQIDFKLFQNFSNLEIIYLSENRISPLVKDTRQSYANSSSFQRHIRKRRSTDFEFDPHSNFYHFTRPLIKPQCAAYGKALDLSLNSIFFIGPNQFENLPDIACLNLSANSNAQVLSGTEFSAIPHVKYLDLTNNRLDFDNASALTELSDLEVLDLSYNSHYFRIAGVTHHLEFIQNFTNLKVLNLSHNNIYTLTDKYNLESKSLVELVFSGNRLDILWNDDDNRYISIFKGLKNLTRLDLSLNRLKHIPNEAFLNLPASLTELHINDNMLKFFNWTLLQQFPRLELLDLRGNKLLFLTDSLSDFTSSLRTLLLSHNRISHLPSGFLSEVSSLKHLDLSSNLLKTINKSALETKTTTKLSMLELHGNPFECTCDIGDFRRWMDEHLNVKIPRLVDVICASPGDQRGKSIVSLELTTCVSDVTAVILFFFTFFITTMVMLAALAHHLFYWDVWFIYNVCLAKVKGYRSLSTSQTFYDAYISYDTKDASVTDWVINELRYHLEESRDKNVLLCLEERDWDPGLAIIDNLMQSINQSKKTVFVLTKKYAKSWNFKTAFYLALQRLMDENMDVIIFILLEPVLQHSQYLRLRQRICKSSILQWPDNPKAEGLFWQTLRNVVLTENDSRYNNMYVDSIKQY
Procedure, shortened: as §1

[1] = HEK-Blue cells overexpressing human TLR9, stimulated with ODN2006 5 nM, read-out: TLR 9 IC50
[2] = HEK-Blue human TLR9 reporter cells
[3] = HEK-Blue cells overexpressing human TLR9, stimulated with ODN2006 5 nM, 22 hour incubation, reporter readout

| Structure (SMILES) | IC50 (human TLR9; [1]) [µM] | IC50 (human TLR9; [2]) [µM] | IC50 (human TLR7) [µM] | IC50 (human TLR8) [µM] | IC50 (human TLR9; [3]) [µM] | IC50 (human TLR9) [µM] |
| --- | --- | --- | --- | --- | --- | --- |
| Cn1c(-c2ccc(S(C)(=O)=O)cc2)nc2ccc(C3CCN(C4CCCN(C5COC5)CC4)CC3)c(F)c21 (stereo not shown) [Example 315, 7-fluoro-1-methyl-2-(4-(methylsulfonyl)phenyl)-6-(1-(1-(oxetan-3-yl)azepan-4-yl)piperidin-4-yl)-1H-benzo[d]imidazole] | 0.147 | 0.15 | 6.2 | > 50 |  |  |
| COc1ccc(-c2nc3cc(C4CCN(C5CCN(C(C)C)CC5)CC4)ccc3n2CC(F)F)cc1OC [Example 7, 1-(2,2-difluoroethyl)-2-(3,4-dimethoxyphenyl)-5-(1′-isopropyl-[1,4′-bipiperidin]-4-yl)-1H-benzo[d]imidazole] | 0.283 |  | 5.7 | > 50 | 0.28 |  |
| Cn1c(-c2ccc(S(C)(=O)=O)cc2)nc2c(F)c(C3CCN(C4CCN(C5CCOCC5)CC4)CC3)ccc21 [Example 187, 4-fluoro-1-methyl-2-(4-(methylsulfonyl)phenyl)-5-(1′-(tetrahydro-2H-pyran-4-yl)-[1,4′-bipiperidin]-4-yl)-1H-benzo[d]imidazole] | 0.523 |  | > 50 | > 50 |  | 0.52 |
| CC(C)N1CCCC(N2CCC(c3ccc4nc(-c5ccc(S(C)(=O)=O)cc5)n(C)c4c3F)CC2)CC1 (single isomer, unassigned) [Example 114, 7-fluoro-6-(1-(1-isopropylazepan-4-yl)piperidin-4-yl)-1-methyl-2-(4-(methylsulfonyl)phenyl)-1H-benzo[d]imidazole] |  |  | > 50 | 16.7 | 0.013 |  |
| COc1ccc(-c2nc3ccc(C4CCN(C5CCN(C6CC6)CC5)CC4)cc3n2C(C)C)cc1OC [Example 31, 6-(1′-cyclopropyl-[1,4′-bipiperidin]-4-yl)-2-(3,4-dimethoxyphenyl)-1-isopropyl-1H-benzo[d]imidazole] | 0.749 |  | > 50 | > 50 | 0.75 |  |
| Cc1cc(C2CCN(C3CC4CCC(C3)N4C(C)C)CC2)cc2[nH]c(-c3ccc(S(C)(=O)=O)cc3)nc12 (stereo not shown) [Example 333, 6-(1-(8-isopropyl-8-azabicyclo[3.2.1]octan-3-yl)piperidin-4-yl)-4-methyl-2-(4-(methylsulfonyl)phenyl)-1H-benzo[d]imidazole] | 0.329 | 0.33 | > 50 | > 50 |  |  |
| Cc1cc(C2CCN(C3CCCN(C4COC4)CC3)CC2)cc2c1nc(-c1ccc(S(C)(=O)=O)cc1)n2C (stereo not shown) [Example 304, 1,4-dimethyl-2-(4-(methylsulfonyl)phenyl)-6-(1-(1-(oxetan-3-yl)azepan-4-yl)piperidin-4-yl)-1H-benzo[d]imidazole] | 0.18 | 0.18 | 12.3 | > 50 |  |  |
| Cc1cc(C2CCN(C3CCN(c4ccccc4)CC3)CC2)cc2c1nc(-c1ccc(S(C)(=O)=O)cc1)n2C [Example 318, 1,4-dimethyl-2-(4-(methylsulfonyl)phenyl)-6-(1′-phenyl-[1,4′-bipiperidin]-4-yl)-1H-benzo[d]imidazole] | 0.269 | 0.27 | 10.2 | > 50 |  |  |
| COc1cc(-c2nc3c(C)cc(C4CCN(C5CC6CCC(C5)N6C5CC5)CC4)cc3n2C)cn2ncnc12 (stereo not shown) [Example 354, 6-(6-(1-(8-cyclopropyl-8-azabicyclo[3.2.1]octan-3-yl)piperidin-4-yl)-1,4-dimethyl-1H-benzo[d]imidazol-2-yl)-8-methoxy-[1,2,4]triazolo[1,5-a]pyridine] | 0.085 | 0.085 | 7.5 | 0.7 |  |  |
| CC(C)N1CCC(N2CCC(c3ccc4nc(-c5ccc(S(C)(=O)=O)cc5)[nH]c4c3F)CC2)CC1 [Example 87, 7-fluoro-6-(1′-isopropyl-[1,4′-bipiperidin]-4-yl)-2-(4-(methylsulfonyl)phenyl)-1H-benzo[d]imidazole] |  |  | > 50 | > 50 | 0.95 |  |
| Cn1c(-c2ccc(S(C)(=O)=O)cc2)nc2c(F)cc(C3CCN(C4CC5CCC(C4)N5C4CCOCC4)CC3)cc21 (single isomer, unassigned) [Example 288, 4-fluoro-1-methyl-2-(4-(methylsulfonyl)phenyl)-6-(1-(8-(tetrahydro-2H-pyran-4-yl)-8-azabicyclo[3.2.1]octan-3-yl)piperidin-4-yl)-1H-benzo[d]imidazole] | 0.105 | 0.11 | 31.7 | > 50 |  |  |
| CS(=O)(=O)c1ccc(-c2nc3ccc(C4CCN(C5CCN(CC6CC6)CC5)CC4)c(F)c3[nH]2)cc1 [Example 179, 6-(1′-(cyclopropylmethyl)-[1,4′-bipiperidin]-4-yl)-7-fluoro-2-(4-(methylsulfonyl)phenyl)-1H-benzo[d]imidazole] | 0.184 |  | > 50 | > 50 |  | 0.18 |
